Data on 24 compounds can be found in patent US10781181B2, “N-((het) arylmethyl)-heteroaryl-carboxamides compounds as plasma kallikrein inhibitors” (Kalvista Pharmaceuticals Limited, priority 2014, dated 2020).

The structures appear in SMILES notation. Read-outs that look alike come from different tables or passages of the source.

What all share (type): biochemical
The target in one assay is Human plasma kallikrein (Homo sapiens (Human), UniProt P03952). In words: Determination of the IC50 for plasma kallikrein. The note with it: read-out: IC50 (human PKal). How it is done: Determination of the IC50 for Plasma Kallikrein
Human plasma kallikrein (Protogen) was incubated at 25° C. with the fluorogenic substrate H-DPro-Phe-Arg-AFC and various concentrations of the test compound. Residual enzyme activity (initial rate of reaction) was determined by measuring the change in […] at 410 nm and the IC50 value for the test compound was determined.

The target of a further assay is Human KLK1 (Homo sapiens (Human), UniProt P06870). In words: Determination of the IC50 for KLK1. Conditions: human KLK1, 25° C., substrate H-DVal-Leu-Arg-AFC. How it is done: Determination of the IC50 for KLK1
Human KLK1 (Callbiochem) was incubated at 25° C. with the fluorogenic substrate H-DVal-Leu-Arg-AFC and various concentrations of the test compound. Residual enzyme activity (initial rate of reaction) was determined by measuring the change in […] at 410 nm and the IC50 value for the test compound was determined.

In another assay the target is Human FXIa (Homo sapiens (Human), UniProt P03951). The assay can be described thus: Determination of the % inhibition for FXIa. Conditions: read-out: % Inhibition @ 40 μM (human FXIa). How it is done:
Determination of the % Inhibition for FXIa
Human FXIa (Enzyme Research Laboratories) was incubated at 25° C. with the fluorogenic substrate Z-Gly-Pro-Arg-AFC and 40 μM of the test compound. Residual enzyme activity (initial rate of reaction) was determined by measuring the change in […].

The mark [1] stands for this setting: 40 μM of the test compound, human FXIa, 25° C.

The IC50 is the concentration that inhibits the measured activity by half. In general, inhibition refers to how much of the control response was suppressed.

Sequence of Human plasma kallikrein (P03952 391-638): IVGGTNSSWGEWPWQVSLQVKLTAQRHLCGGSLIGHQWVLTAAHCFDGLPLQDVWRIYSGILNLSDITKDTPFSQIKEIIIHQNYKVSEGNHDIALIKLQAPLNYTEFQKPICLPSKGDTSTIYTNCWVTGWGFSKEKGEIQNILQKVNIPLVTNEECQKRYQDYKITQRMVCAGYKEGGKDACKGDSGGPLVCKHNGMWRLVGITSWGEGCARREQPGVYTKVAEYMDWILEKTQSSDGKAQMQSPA
Sequence of Human plasma kallikrein (P03952 20-390 partner): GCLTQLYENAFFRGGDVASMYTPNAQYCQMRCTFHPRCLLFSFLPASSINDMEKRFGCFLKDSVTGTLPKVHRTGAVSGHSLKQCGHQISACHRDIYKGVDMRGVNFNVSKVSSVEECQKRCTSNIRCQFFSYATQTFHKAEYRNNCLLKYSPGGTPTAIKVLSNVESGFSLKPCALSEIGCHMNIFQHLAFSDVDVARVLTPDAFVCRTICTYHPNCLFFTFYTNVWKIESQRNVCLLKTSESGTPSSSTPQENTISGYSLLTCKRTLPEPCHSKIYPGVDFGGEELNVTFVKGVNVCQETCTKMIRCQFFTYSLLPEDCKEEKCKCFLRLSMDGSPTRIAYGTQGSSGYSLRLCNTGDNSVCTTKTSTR
Sequence of Human FXIa (P03951 388-625 limits assumed): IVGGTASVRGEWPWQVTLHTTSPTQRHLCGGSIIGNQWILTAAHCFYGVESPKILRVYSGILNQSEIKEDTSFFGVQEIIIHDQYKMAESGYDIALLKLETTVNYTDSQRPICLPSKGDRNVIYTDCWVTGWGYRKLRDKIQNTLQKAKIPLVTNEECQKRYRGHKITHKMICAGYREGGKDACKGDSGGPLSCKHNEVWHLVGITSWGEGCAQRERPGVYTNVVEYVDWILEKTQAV
Sequence of Human FXIa (P03951 19-387 partner limits assumed): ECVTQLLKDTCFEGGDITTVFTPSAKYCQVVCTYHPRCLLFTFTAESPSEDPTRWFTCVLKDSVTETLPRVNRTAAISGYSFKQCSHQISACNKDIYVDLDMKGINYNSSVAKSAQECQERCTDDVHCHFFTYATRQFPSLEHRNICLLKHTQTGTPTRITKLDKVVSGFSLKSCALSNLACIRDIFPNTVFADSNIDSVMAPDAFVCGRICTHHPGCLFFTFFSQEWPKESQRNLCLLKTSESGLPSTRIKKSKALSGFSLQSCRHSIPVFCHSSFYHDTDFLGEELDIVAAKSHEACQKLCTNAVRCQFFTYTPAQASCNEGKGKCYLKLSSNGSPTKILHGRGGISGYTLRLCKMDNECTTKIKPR
Sequence of Human KLK1 (P06870 25-262): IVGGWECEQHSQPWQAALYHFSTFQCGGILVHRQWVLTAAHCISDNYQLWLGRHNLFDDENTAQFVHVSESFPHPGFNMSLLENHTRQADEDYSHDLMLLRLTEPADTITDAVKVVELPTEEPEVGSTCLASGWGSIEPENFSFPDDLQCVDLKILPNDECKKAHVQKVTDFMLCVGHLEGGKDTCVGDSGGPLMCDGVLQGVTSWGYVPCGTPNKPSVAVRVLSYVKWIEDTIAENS

Consider `Cc1ccc(Cl)cc1OCCNC(=O)c1cn(Cc2ccc(Cn3ccccc3=O)cc2)nc1N` [Example 14, 3-amino-N-[2-(5-chloro-2-methylphenoxy)ethyl]-1-({4-[(2-oxopyridin-1-yl)methyl]phenyl}methyl)pyrazole-4-carboxamide], for which the IC50 on Human plasma kallikrein is 0.161 µM; against Human KLK1, > 40 µM. Further, the inhibition at 40 µM at Human FXIa (setting [1]) was determined as 0%.
As to `Nc1nn(Cc2ccnc(-c3cccnc3)c2)cc1C(=O)NCCOc1cccc(Cl)c1` [Example 91, 3-amino-N-[2-(3-chlorophenoxy)ethyl]-1-{[2-(pyridin-3-yl)pyridin-4-yl]methyl}pyrazole-4-carboxamide], the figures for the 50% inhibitory concentration (IC50) at Human plasma kallikrein and on Human KLK1 were 3.78 µM and > 40 µM, respectively. Also, at Human FXIa (setting [1]), the inhibition at 40 µM is 0%.
In the same order, the values of `Nc1nn(Cc2ccc(Cn3ccccc3=O)cc2)cc1C(=O)NCCOc1cc(Cl)ccc1Cl` [Example 34, 3-amino-N-[2-(2,5-dichlorophenoxy)ethyl]-1-({4-[(2-oxopyridin-1-yl)methyl]phenyl}methyl)pyrazole-4-carboxamide] are 0.0928 µM, > 40 µM and 7%.
As to `O=C(NCCOc1cccc(Cl)c1)c1cn(Cc2ccc(Cn3ccccc3=O)cc2)nc1C1CC1` [Example 5, N-[2-(3-chlorophenoxy)ethyl]-3-cyclopropyl-1-({4-[(2-oxopyridin-1-yl)methyl]phenyl}methyl)pyrazole-4-carboxamide], the values for the half-inhibitory concentration (IC50) on Human plasma kallikrein and against Human KLK1 were 0.0684 µM and > 10 µM, respectively. Further, at Human FXIa (setting [1]), the inhibition at 40 µM is 0%.
On to `CNC(=O)CN(C)c1cc(Cn2cc(C(=O)NCCOc3cccc(Cl)c3)c(N)n2)ccn1` [Example 74, 3-amino-N-[2-(3-chlorophenoxy)ethyl]-1-[(2-{methyl[(methylcarbamoyl)methyl]amino}pyridin-4-yl)methyl]pyrazole-4-carboxamide], for which the values for the IC50 at Human plasma kallikrein and against Human KLK1 were > 10 µM and > 40 µM, respectively. The inhibition at 40 µM on Human FXIa (setting [1]) stood at 4%.
In the case of `Nc1nn(Cc2ccc(Cn3ccccc3=O)cc2)cc1C(=O)NCCNc1cc(Cl)ccn1` [Example 47, 3-amino-N-{2-[(4-chloropyridin-2-yl)amino]ethyl}-1-({4-[(2-oxopyridin-1-yl)methyl]phenyl}methyl)pyrazole-4-carboxamide], the figures for the IC50 at Human plasma kallikrein and on Human KLK1 were 0.0301 µM and > 40 µM, respectively. Also, the inhibition at 40 µM on Human FXIa (setting [1]) was 32%.
For `COCc1nn(Cc2ccc(Cn3ccccc3=O)cc2)cc1C(=O)NCCOc1cc(F)cc(Cl)c1` [Example 10, N-[2-(3-chloro-5-fluorophenoxy)ethyl]-3-(methoxymethyl)-1-({4-[(2-oxopyridin-1-yl)methyl]phenyl}methyl)pyrazole-4-carboxamide], the values for the IC50 at Human plasma kallikrein and against Human KLK1 were 0.134 µM and > 10 µM, respectively. The inhibition at 40 µM at Human FXIa (setting [1]) is 0%.
Turning to `Nc1nn(Cc2ccc(Cn3ccccc3=O)cc2)cc1C(=O)NCCOc1cccc(Cl)c1Cl` [Example 29, 3-amino-N-[2-(2,3-dichlorophenoxy}ethyl]-1-({4-[(2-oxopyridin-1-yl)methyl]phenyl}methyl)pyrazole-4-carboxamide], the IC50 at Human plasma kallikrein was 2.93 µM; on Human KLK1 it was > 40 µM. Moreover, on Human FXIa (setting [1]), the inhibition at 40 µM came out at 0%.
`Cc1ccc2cc(Cn3cc(C(=O)NCCOc4cccc(Cl)c4)c(N)n3)ccc2n1` [Example 54, 3-amino-N-[2-(3-chlorophenoxy)ethyl]-1-[(2-methylquinolin-6-yl)methyl]pyrazole-4-carboxamide]: the IC50 on Human plasma kallikrein was 0.245 µM; at Human KLK1, > 40 µM. Also, on Human FXIa (setting [1]), the inhibition at 40 µM is 67%.
For the compound `CN(CCNC(=O)c1cn(Cc2ccc(Cn3ccccc3=O)cc2)nc1N)c1cccc(Cl)c1` [Example 41, 3-amino-N-{2-[(3-chlorophenyl)(methyl)amino]ethyl}-1-({4-[(2-oxopyridin-1-yl)methyl]phenyl}methyl)pyrazole-4-carboxamide], the IC50 is 0.264 µM on Human plasma kallikrein and > 40 µM on Human KLK1. The inhibition at 40 µM at Human FXIa (setting [1]) was found to be 0%.
For the compound `CNC(=O)CNc1ccc(Cn2cc(C(=O)NCCOc3cccc(Cl)c3)c(N)n2)cn1` [Example 78, 3-amino-N-[2-(3-chlorophenoxy)ethyl]-1-[(6-{[(methylcarbamoyl)methyl]amino}pyridin-3-yl)methyl]pyrazole-4-carboxamide], the half-inhibitory concentration (IC50) was 6.93 µM at Human plasma kallikrein and > 40 µM on Human KLK1. Moreover, the inhibition at 40 µM at Human FXIa (setting [1]) was 4%.
The matching figures for `Nc1nn(Cc2ccc(Cn3ccccc3=O)cc2)cc1C(=O)NCCOc1cccc(Cl)c1` [Example 1]: 0.0029 µM, > 10 µM and 2%.
As to `COC(=O)c1ccc(Cn2cc(C(=O)NCCOc3cccc(Cl)c3)c(N)n2)cc1` [Example 58, methyl 4-[(3-amino-4-{[2-(3-chlorophenoxy)ethyl]carbamoyl}pyrazol-1-yl)methyl]benzoate], the values for the half-maximal inhibitory concentration (IC50) at Human plasma kallikrein and on Human KLK1 were 5.42 µM and > 40 µM, respectively. The inhibition at 40 µM on Human FXIa (setting [1]) was 1%.
For the compound `Cn1ncc2cc(Cn3cc(C(=O)NCCOc4cccc(Cl)c4)c(N)n3)ccc21` [Example 93, 3-amino-N-[2-(3-chlorophenoxy)ethyl]-1-[(1-methylindazol-5-yl)methyl]pyrazole-4-carboxamide], the IC50 at Human plasma kallikrein was > 10 µM; against Human KLK1 it was > 40 µM. The inhibition at 40 µM at Human FXIa (setting [1]) was found to be 2%.
The matching figures for `Nc1nn(Cc2ccc(Cn3ccccc3=O)cc2)cc1C(=O)NCCOc1ccc(Cl)c(Cl)c1` [Example 30, 3-amino-N-[2-(3,4-dichlorophenoxy}ethyl]-1-({4-[(2-oxopyridin-1-yl)methyl]phenyl}methyl)pyrazole-4-carboxamide]: 0.0968 µM, > 40 µM and 0%.
On to `O=C(NCCOc1cccc(Cl)c1)c1cn(Cc2ccc(N3CCCC3)nc2)nc1C(F)(F)F` [Example 28, N-[2-(3-chlorophenoxy)ethyl]-1-{[6-(pyrrolidin-1-yl)pyridin-3-yl]methyl}-3-(trifluoromethyl)pyrazole-4-carboxamide], for which the IC50 on Human plasma kallikrein was 2.39 µM; on Human KLK1 it was > 10 µM. Also, the inhibition at 40 µM on Human FXIa (setting [1]) is 0%.
`Nc1nn(Cc2ccnc(N3CCCC3)c2)cc1C(=O)NCCOc1cccc(Cl)c1` [Example 50, 3-amino-N-[2-(3-chlorophenoxy)ethyl]-1-{[2-(pyrrolidin-1-yl)pyridin-4-yl]methyl}pyrazole-4-carboxamide]: the values for the IC50 at Human plasma kallikrein and on Human KLK1 were 0.326 µM and > 40 µM, respectively. The inhibition at 40 µM on Human FXIa (setting [1]) amounted to 59%.
As for `CNC(=O)c1ccc(Cn2cc(C(=O)NCCOc3cccc(Cl)c3)c(N)n2)cc1` [Example 61, 3-amino-N-[2-(3-chlorophenoxy)ethyl]-1-{[4-(methylcarbamoyl)phenyl]methyl}pyrazole-4-carboxamide], the values for the IC50 at Human plasma kallikrein and on Human KLK1 were 7.25 µM and > 40 µM, respectively. For the same compound, the inhibition at 40 µM on Human FXIa (setting [1]) stood at 0%.
The matching figures for `Nc1nn(Cc2ccc(-n3cccn3)nc2)cc1C(=O)NCCOc1cccc(Cl)c1` [Example 88, 3-amino-N-[2-(3-chlorophenoxy)ethyl]-1-{[6-(pyrazol-1-yl)pyridin-3-yl]methyl}pyrazole-4-carboxamide]: 9.18 µM, > 40 µM and 0%.
As to `CN(C(=O)CNC(=O)c1cn(Cc2ccc(Cn3ccccc3=O)cc2)nc1N)c1cccc(Cl)c1` [Example 40, 2-{[3-amino-1-({4-[(2-oxopyridin-1-yl)methyl]phenyl}methyl)pyrazol-4-yl]formamido}-N-(3-chlorophenyl)-N-methylacetamide], the values for the IC50 at Human plasma kallikrein and on Human KLK1 were 0.0126 µM and > 40 µM, respectively. Also, on Human FXIa (setting [1]), the inhibition at 40 µM amounted to 0%.
In the same order, the values of `C[C@@H](COc1cccc(Cl)c1)NC(=O)c1cn(Cc2ccc(Cn3ccccc3=O)cc2)nc1N` [Example 114, 3-amino-N-[(2S)-1-(3-chlorophenoxy)propan-2-yl]-1-({4-[(2-oxopyridin-1-yl)methyl]phenyl}methyl)pyrazole-4-carboxamide] are 0.14 µM, > 40 µM and 0%.
Take `Nc1nn(Cc2ccc(Cn3ccccc3=O)cc2)cc1C(=O)N[C@@H]1CCN(c2cccc(Cl)c2)C1=O` [Example 110, 3-amino-N-[(3R)-1-(3-chlorophenyl)-2-oxopyrrolidin-3-yl]-1-({4-[(2-oxopyridin-1-yl)methyl]phenyl}methyl)pyrazole-4-carboxamide]: the IC50 was 0.004 µM at Human plasma kallikrein and > 40 µM on Human KLK1. Moreover, the inhibition at 40 µM on Human FXIa (setting [1]) is 13%.
In the case of `Nc1nn(Cc2ccc(C(=O)O)cc2)cc1C(=O)NCCOc1cccc(Cl)c1` [Example 69, 4-[(3-amino-4-{[2-(3-chlorophenoxy)ethyl]carbamoyl}pyrazol-1-yl)methyl]benzoic acid], the results for the half-maximal inhibitory concentration (IC50) on Human plasma kallikrein and on Human KLK1 were > 10 µM and > 40 µM, respectively. Besides, at Human FXIa, the inhibition at 40 µM was 0%.
With `Nc1nn(Cc2ccc(C(=O)N3CCCC3)cc2)cc1C(=O)NCCOc1cccc(Cl)c1` [Example 51, 3-amino-N-[2-(3-chlorophenoxy)ethyl]-1-({4-[(pyrrolidin-1-yl)carbonyl]phenyl}methyl)pyrazole-4-carboxamide], the half-inhibitory concentration (IC50) is 0.427 µM on Human plasma kallikrein and > 40 µM against Human KLK1. In addition, the inhibition at 40 µM on Human FXIa (setting [1]) came to 51%.
